These are literature values, as cited in patent publication US20040014652A1, “Tumor activated prodrug compounds and methods of making and using the same” (priority 2000, published 2004).

In one data set the test system is tumors. The settings on record: mice.
The conditions of data set [1]: human, in vivo.

TNFα: the “dose required for tumor regression” value with tumors is on record as “approximately 400 μg/kg”. Moreover, in data set [1], the half-life is 20 min.

Usually half-life stands for how long it takes for the measured level to halve.
